Results taken from patent publication US20230053941A1, “MICROEMULSIONS WITH DICAMBA SALTS HAVING IMPROVED PROPERTIES” (MONSANTO TECHNOLOGY LLC, priority 2020, published 2023).

Test: Partition coefficient of compound (A) in solvents
Assay type: physicochemical
Conditions: HPLC, approximately 25° C.
Experimental: Experimental procedure for the respective solvent: (1) A solution of 10 g of compound (A) is prepared in 90 g of the respective solvent. (2) An aliquot of 10 g of the solution obtained in step (1) is added to 90 g of water in a glass bottle, which is shaken on a mechanical shaker for 4 hours at ambient temperature (approximately 25° C.). (3) The contents of the glass bottle are permitted to phase separate for 4 days at ambient temperature (approximately 25° C.). (4) Subsamples of the resulting oil and water phases are taken and analyzed by HPLC to determine the concentrations of compound (A) in oil (Co) and water phases (Cw) respectively. The subsamples are typically centrifuged before HPLC analysis to remove traces of organic solvent from the water phase.
A Partition Coefficient, analogous to the Octanol-Water Partition Coefficient, P, is calculated as Co/Cw. The Partition Coefficient is conveniently expressed as a logarithm […].
The ratio of determined concentrations of compound (A) in the solvent phase and the water phase typically is very large. […] In other cases, traces of the organic solvent are found in the water phase, even after centrifugation, so that the apparent concentration of oil-soluble herbicide observed in the water phase is misleadingly high. […]

Q: For `CCOC(=O)COc1ncccc1Oc1cc(-n2c(=O)cc(C(F)(F)F)n(C)c2=O)c(F)cc1Cl` [Cmp. A, ethyl [3-[2-chloro-4-fluoro-5-(1-methyl-6-trifluoromethyl-2,4-dioxo-1,2,3,4-tetrahydropyrimidin-3-yl)phenoxy]-2-pyridyloxy]acetate], which “compound (A) in the water phase” value (acetophenone as organic solvent) is on record?
A: undetectable

Q: What about the “compound (A) in the water phase” value (aromatic 200 ND as organic solvent) of the same compound?
A: undetectable
